This is an account of results in BindingDB's records for doi:10.1021/jm400664x (Washington University, 2013).

As a reminder, the Ki is the equilibrium dissociation constant of an inhibitor or competing ligand from its target. High values mean lower affinity, low ones higher affinity.

For the experiment, the target named is T1, Vesicular acetylcholine transporter (Homo sapiens, UniProt Q16572).
T1 sequence (Q16572 whole entry): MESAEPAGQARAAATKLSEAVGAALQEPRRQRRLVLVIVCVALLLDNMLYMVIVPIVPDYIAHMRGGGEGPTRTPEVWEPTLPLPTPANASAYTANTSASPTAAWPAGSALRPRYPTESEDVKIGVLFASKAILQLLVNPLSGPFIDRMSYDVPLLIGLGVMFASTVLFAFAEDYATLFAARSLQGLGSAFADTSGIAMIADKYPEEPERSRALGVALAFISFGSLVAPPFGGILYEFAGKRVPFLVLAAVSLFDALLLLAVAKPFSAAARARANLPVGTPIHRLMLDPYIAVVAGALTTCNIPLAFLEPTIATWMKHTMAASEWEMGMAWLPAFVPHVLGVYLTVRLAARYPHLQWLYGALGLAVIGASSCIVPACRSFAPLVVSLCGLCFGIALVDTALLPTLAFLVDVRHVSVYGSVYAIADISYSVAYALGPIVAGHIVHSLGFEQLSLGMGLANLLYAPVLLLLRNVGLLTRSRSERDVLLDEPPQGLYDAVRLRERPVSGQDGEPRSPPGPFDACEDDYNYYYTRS
In words: Displacement of (-)-[3H]vesamicol from human VAChT expressed in rat PC12 cell membrane after 20 hrs.
Take `CN(C)c1ccc(C(=O)C2CCN([C@@H]3Cc4ccccc4C[C@H]3O)CC2)cc1`: the inhibition constant (Ki) was 0.93 nM.

As for `Cn1cccc1C(=O)C1CCN([C@@H]2Cc3ccccc3C[C@H]2O)CC1`, the affinity corresponds to a Ki of 18 nM.

As to `Cn1c(C(=O)C2CCN([C@@H]3Cc4ccccc4C[C@H]3O)CC2)cccc1=O`, the inhibition constant (Ki) is 182 nM.

The compound `O=C(c1cccnc1F)C1CCN([C@@H]2Cc3ccccc3C[C@H]2O)CC1` had a Ki of 13 nM.

For the compound `O=C(c1ccc(F)nc1)C1CCN([C@@H]2Cc3ccccc3C[C@H]2O)CC1`, affinity was put at a Ki of 26 nM.

With `Cn1cccc1C(=O)C1CCN([C@@H]2Cc3c(N)cccc3C[C@H]2O)CC1`, the Ki came to 39 nM.

Compound `O=C(c1cncc(F)c1)C1CCN([C@@H]2Cc3ccccc3C[C@H]2O)CC1` yielded a Ki of 10 nM.

`O=C(c1cccnc1)C1CCN([C@@H]2Cc3ccccc3C[C@H]2O)CC1` yielded a Ki of 24 nM.

As to `O=C(c1ccc(OCCF)nc1)C1CCN([C@@H]2Cc3ccccc3C[C@H]2O)CC1`, the inhibition constant (Ki) worked out at 38 nM.

In turn, `CNc1ccc(C(=O)C2CCN([C@@H]3Cc4ccccc4C[C@H]3O)CC2)cc1` had a Ki of 3 nM.

`COc1cccnc1C(=O)C1CCN([C@@H]2Cc3ccccc3C[C@H]2O)CC1` had a Ki of 121 nM.

The compound `Cn1cccc1C(=O)C1CCN([C@@H]2Cc3cccc(N)c3C[C@H]2O)CC1` showed an inhibitory constant (Ki) of 2310 nM.

As to `Cn1ccc(C(=O)C2CCN([C@@H]3Cc4ccccc4C[C@H]3O)CC2)cc1=O`, the Ki is 66 nM.

For `O=C(c1ncccc1OCCF)C1CCN([C@@H]2Cc3ccccc3C[C@H]2O)CC1`, the Ki was 76 nM.

In turn, `Cn1ccc(C(=O)C2CCN([C@@H]3Cc4ccccc4C[C@H]3O)CC2)c1` returned an inhibitory constant (Ki) of 27 nM.
